# According to patent US11478488B2, “Co-crystals of tramadol and coxibs” (ESTEVE PHARMACEUTICALS, S.A., priority 2009, dated 2022):
# Read-outs that look alike come from different tables or passages of the source.
# Legend:
# [1] = test system: motor behaviour of monoarthritic rats (carrageenan-induced gait changes); test: Pain-induced gait adaptation (CBMS) in carrageenan-induced acute monoarthritic model; settings: intraperitoneal 4.5 h after carrageenan, measured 30 min after administration; co-crystal 20 mg/kg, single drugs at corresponding dose
# Protocol: Movement-evoked pain was evaluated by a computerized behavioral monitoring system (CBMS).
# The rat carrageenan model utilizes inflammation-associated pain following injection of the knee joint (monoarthritic model). […] The CBMS was used to assess gait related changes 5 hours after carrageenan injection and 30 min after drugs administration. […] Mechanical allodynia was measured with von Frey filaments 15 minutes after CBMS gait analysis.
# Food and water were available ad libitum up to test time.
# The dosing volume was 2 ml/kg. The drug response of the animal was subsequently evaluated 30 and 45 min after drug administration (for CBMS and von Frey respectively).
# Joint inflammation was induced by carrageenan (Sigma Chemical, St. Louis, Mo.) injected percutaneously using a 30-gauge needle through the infrapatellar ligament into the right knee joint cavity (300 μg, 40 μl) with the animal under brief isoflurane (IsoFlo®, Abbott-Esteve, Barcelona, Spain) anaesthesia (3%).
# Detailed analysis of gait was performed on walking rats using the CBMS method. Briefly, light from a fluorescent tube is sent through a glass plate. Light rays are completely reflected internally. As soon as anything, e.g. a rat's paw, is in contact with the glass surface, light is reflected downwards. It results in a sharp image of a bright paw print. The whole run is recorded via a camera placed under the glass plate. […]
# [2] = test system: incision-induced mechanical allodynia in the incised rat hind paw; test: Mechanical allodynia (von Frey filaments) in paw incision postoperative pain model; assay type: in vivo, Wistar rats; settings: ip
# Protocol: (§1) Male, Wistar rats (120-160 g, Harlan, Italy) were housed in a climate-controlled room for at least 5 days prior to testing.
# (§2) The dosing volume was 10 ml/kg. The antihyperalgesic or antiallodynic response of the animal was subsequently evaluated 60 min after drug administration.
# (§3) Rats were anaesthetized with 3% isofluorane for veterinary use, employing an Ohmeda vaporizer and an anaesthesia chamber. Anaesthesia was kept during the surgical operation by a tube which directs the isoflurane vapours to the animal's snout. Once the rats were anaesthetised, they were laid down in a prone position and their right hindpaws were cleaned out with alcohol. Then, a 1 cm longitudinal incision was made with a number 23 scalpel, through skin and fascia of the plantar aspect of the paw, starting 0.5 cm from the proximal edge of the heel and extending toward the toes. Therefore, both superficial (skin) and deep (muscle) tissues and nerves were injured. Finally, the skin of the paw was stitched with a suturing stitch with breaded silk (3.0) and the wound was cleaned out with povidone.
# (§4) The drugs were tested 4 hours after the surgery (plantar incision); 60 minutes after the administration of the product, two behavioural endpoints were evaluated: thermal hypersensitivity or hyperalgesia, and mechanical hypersensitivity or allodynia.
# Mechanical allodynia was tested using von Frey filaments. Animals were placed in methacrylate cylinders on an elevated surface, with metallic mesh floor perforated in order to apply the filaments. After an acclimation period of about 30 minutes within the cylinders, both hindpaws were stimulated (the injured and the non-injured paw, serving the latter as control), starting with the lowest force filament (0.4 g) and reaching up to a 15 g filament. The animal's response to pain was manifested by the withdrawal of the paw as a consequence of the painful stimulus caused by a filament. The pressure (force in grams) threshold eliciting the withdrawal of the paw was recorded.
# Where it is established that Zmix<Zadd for a specific fixed-ratio, then that composition has a synergistic anti-hyperalgesic effect. Both ED50 mix and ED50 add values are random variables. ED50 mix is determined from the dose-response curve for a specific fixed-ratio of the components; ED50 add is calculated from the ED50 values for the individual drugs. Zmix is then compared to Zadd via a Student's t-test.
# [3] = test system: incision-induced thermal hyperalgesia in the incised rat hind paw; test: Thermal hyperalgesia (plantar test, Hargreaves) in paw incision postoperative pain model; assay type: in vivo, Wistar rats; settings: for ED50: read-out: ED50 thermal hyperalgesia (after sigmoidal adjustment); for Efficacy on thermal hyperalgesia: rat paw incision, intraperitoneal dose response, FIG. 8
# Protocol: as §1, §2, §3, §4
# Animals were placed in the methacrylate cages of said apparatus, having a crystal floor. The acclimation period within the cages was about 10 minutes. The thermal stimulus came from a lamp moving below the crystal floor and which was applied to both paws, with a minimum interval of 1 minute between both stimulations in order to avoid learning behaviours. The rat is able to withdraw the paw freely when it feels discomfort (pain) produced by the heat coming from the lamp; then it is switched off and the latency time to the withdrawal response is recorded in seconds. In order to avoid hurting the animal's paw, the lamp was automatically switched off after 32 seconds.
# [4] = intraperitoneal single dose, 4 h after surgery, evaluated 60 min after administration, read-out: ED50 mechanical allodynia (after sigmoidal adjustment)
# [5] = intraperitoneal, separate ED50 of single drugs for isobologram analysis, read-out: ED50 on mechanical allodynia as used in the isobologram (FIG. 7)
SMILES,Effect on carrageenan-induced gait changes (CBMS) [1],"ED50 [2, 4] [mg/kg]","ED50 [2, 5] [mg/kg]","ED50 ([3]; Rattus norvegicus, ip) [mg/kg]",Efficacy on thermal hyperalgesia [3],"Emax ([3]; Rattus norvegicus, ip, 1 h, read-out: Emax thermal hyperalgesia, rat paw incision, intraperitoneal, 60 min after administration) [%]"
"COc1cccc(C2(O)CCCCC2CN(C)C)c1 (racemic) [Tramadol, 2-(dimethylaminomethyl)-1-(3-methoxyphenyl)cyclohexanol]",inhibited,5.41,5.28,8.3,full efficacy,
"Cc1ccc(-c2cc(C(F)(F)F)nn2-c2ccc(S(N)(=O)=O)cc2)cc1 [Celecoxib, 4-[5-(4-methylphenyl)-3-(trifluoromethyl)-pyrazol-1-yl]benzenesulfonamide]",inhibited,3.03,3.01,2.35,only a partial response,45
